Assays:
NCM460 = test: MTT assay, cell growth inhibition, NCM460; assay type: cell-based; details: Homo sapiens, 48 hours, read-out: Tumor cell growth inhibition IC50, NCM460
Source text: (§1) MTT Assay—Inhibitory Effect of 6-dithio-substituted-2′-deoxyguanosine Derivatives on Tumor Cell Growth
(§2) We measured the tumor cell growth inhibitory activity of candidate compounds by MTT assay. Human tumor cells in logarithmic growth phase were digested with 0.25% pancreatin for a certain time, centrifuged, re-suspended and counted with a blood cell counting plate to prepare a cell suspension, and the cell suspension was adjusted to 1.0×10^4-1×10^5 cells/mL. The cell suspension was inoculated into a 96-well culture plate, 100 μL per well, and cultured in an incubator with saturated humidity, 37° C. and 5% CO2 for 24 hours until the cells completely adhered to the wall. The test compound was diluted to the required concentration with a complete medium, the complete medium of the 96-well culture plate inoculated with human tumor cells was sucked out, a medicament-containing medium was added, 100 μL per well, the final concentration of DMSO was less than 0.1%, and the culture plate was put in an incubator for 48 hours. 10 μl of MTT was added to each well of the 96-well plate, and the culture was continued for 4 h. The culture was stopped and the culture solution in the well was carefully sucked off. 150 μL DMSO was added to each well, and shaken at a low speed for 10 min on a shaking table, so that the crystal was fully dissolved. The absorbance of each well was measured at OD 570 nm of an enzyme-linked immunosorbent assay instrument. At the same time, zeroing wells (the culture medium, MTT, dimethyl sulfoxide) and control wells (cells, a drug dissolution medium with the same concentration, a culture solution, MTT, dimethyl sulfoxide) were set up, and the cell growth inhibitory activity was calculated with the corresponding solvents as the control. 3-6 multiple wells in each group were set up with repetition of several times. Cell viability of control=(Adrug group−Azeroing well)/(Acontrol well−Azeroing well)*100%. Drawing was drawn, the data were fitted into a concentration response curve with a variable slope, and IC50 value was calculated from the curve.

[1] = test system: human colon cancer cells HCT116; test: MTT assay, tumor cell growth inhibition, HCT116; assay type: cell-based; details: HCT-116, 48 hours
Source text: as §1, §2

[2] = test system: human colon cancer cells HT29; test: MTT assay, tumor cell growth inhibition, HT29; assay type: cell-based; details: HT-29, 48 hours
Source text: as §1, §2

[3] = test system: human melanoma cells A375; test: MTT assay, tumor cell growth inhibition, A375; assay type: cell-based; details: A-375, 48 hours
Source text: as §1, §2

[4] = test system: human gastric cancer cells BGC; test: MTT assay, tumor cell growth inhibition, BGC; assay type: cell-based; details: 48 hours
Source text: as §1, §2

[5] = test system: human leukemia cells K562; test: MTT assay, tumor cell growth inhibition, K562; assay type: cell-based; details: 48 hours
Source text: as §1, §2

[6] = test system: human liver cancer cells HepG2; test: MTT assay, tumor cell growth inhibition, HepG2; assay type: cell-based; details: 48 hours
Source text: as §1, §2

[7] = test system: human non-small cell lung cancer A549; test: MTT assay, tumor cell growth inhibition, A549; assay type: cell-based; details: 48 hours
Source text: as §1, §2

[8] = test system: human breast cancer cells MCF7; test: MTT assay, tumor cell growth inhibition, MCF7; assay type: cell-based; details: 48 hours
Source text: as §1, §2

[9] = test system: human breast cancer cells Bcap37; test: MTT assay, tumor cell growth inhibition, Bcap37; assay type: cell-based; details: 48 hours
Source text: as §1, §2

[10] = test system: human colon cancer cell line HCT116 subcutaneous transplanted tumor; test: Tumor-bearing test in nude mice, HCT116 subcutaneous transplanted tumor (tumor volume, TUNEL); assay type: in vivo; details: HCT116 model
Source text: Tumor-Bearing Test in Nude Mice—Inhibitory Effect of 6-Dithio-Substituted-2′-Deoxyguanosine Derivatives on the Growth of Subcutaneous Transplanted Tumor Tissue in Nude Mice
1) Tumor-Bearing Mouse Model of Human Colon Cancer Cell Line HCT116
We took human colon cancer cell line HCT116 as the research object, and established a subcutaneous transplanted tumor model of human colon cancer in 32 immunodeficient nude mice. The 24th generation HCT116 cells in logarithmic growth phase were digested with pancreatin to prepare a single-cell suspension, and 1×10^7 cells were inoculated subcutaneously in the right armpit of male nude mice about 5 weeks old. After inoculation, cyclophosphamide (100 mg/kg) was injected intraperitoneally for two consecutive days. […] On the 20th day after colon cancer cell HCT116 was implanted subcutaneously, nude mice were divided into 7 groups by a random number table method, including a test drug group, a positive control group and a blank control group. Specifically, group A: the compound A was administrated; Group B: the compound B was administrated; Group C: the compound C was administrated; Group D: the compound D was administrated; Group E: the compound 6-thio-DG was administrated; Group F: the compound PX-12 was administrated; Group G: blank group, without administration of any compound. Except group C with 3 rats and group G with 4 rats, all other 5 groups had 5 rats, they mice were labeled and injected by tail vein once every two days for 24 days, 12 times, with the dose of compound A being 2 mg/kg for the first 8 times and 10 mg/kg for the last 4 times, and the dosages of other drugs being the same molar weights. The tumor volume was calculated by taking the length of the tumor as the longest diameter and the width as the corresponding vertical diameter, and the tumor volume V=(length×width^2) mm^3/2. 48 hours after the last treatment, blood was taken from the eyes, and then the animals were killed. Blood was centrifuged to get the supernatant, and then blood biochemical analysis was performed. Paraffin embedded sections of fixed tissues were stained with HE. The tumor mass in a frozen tissue was sectioned in a frozen state, and then stained by DAPI and TUNEL to judge the apoptosis of the tumor tissue in nude mice.

[11] = test system: human melanoma cell A375 tumor; test: Human melanoma cell A375 tumor-bearing mouse model, antitumor effect; assay type: in vivo, nude mice; details: compound D 10 mg/kg, DTIC 20.4 mg/kg (4 times molar), 6-thio-dG+PX12 at twice the molar amount
Description: (§3) 2) Human Melanoma Cell A375 Tumor-Bearing Mouse Model
(§4) We further studied the inhibitory effect of the compound D on human malignant melanoma by using A375 tumor-bearing mouse model. The method was basically the same as above. Dacarbazine (DTIC) is the first-line drug for melanoma. The designed administration groups were: compound D 10 mg/kg group; 6-thio-dG+PX12 combined drug group (the dose is equivalent to twice the molar amount of the compound D); DTIC 20.4 mg/kg group (the dose is equivalent to 4 times the molar amount of the compound D) and blank solvent group.

[12] = A375 tumor-bearing mouse model, body weight, toxicity and blood biochemical indexes; assay type: in vivo; details: compound D 10 mg/kg
Description: as §3, §4

SMILES: CC(C)SSc1nc(N)nc2c1ncn2[C@H]1C[C@H](O)[C@@H](CO)O1 [D, 6-(isopropyldithio)-2′-deoxyguanosine]
- IC50 (NCM460): > 1000 µM
- IC50 [1]: 1.09 µM
- IC50 [2]: 4.24 µM
- IC50 [3]: 0.37 µM
- IC50 [4]: 11.7 µM
- IC50 [5]: 15.7 µM
- IC50 [6]: < 10 µM
- IC50 [7]: 31.1 µM
- IC50 [8]: 41.3 µM
- IC50 [9]: 22.8 µM
- Extent of apoptosis in tumor tissue (TUNEL staining, rank order) ([10]; frozen tumor sections, DAPI and TUNEL, G group = blank): D group>A group≈B group≈E group (6-thio-dG group)>C group>F group (PX-12 group)>G group (KB group)
- Inhibitory effect on the growth of subcutaneous transplanted tumor tissue in nude mice (rank order, from slope of tumor volume) ([10]; tail vein once every two days for 24 days, compound A 2 mg/kg first 8 times, 10 mg/kg last 4 times, others equimolar, KB = blank): D>B≈A≈6-thio-dG>PX-12>C>KB
- Ability to inhibit the growth of transplanted tumor tissue compared with positive controls ([10]; tail vein once every two days for 24 days, equimolar doses): stronger than that of positive control 6-thio-dG and PX-12
- Antitumor effect (tumor volume) compared with controls [11]: significantly higher than that of DITC
- Body weight [12]: after 13 days of administration, the body weight was significantly higher than that of DITC group, 6-thio-dG and PX-12 combination group
- Toxicity compared with 6-thio-dG and PX-12 combination ([12]; combination at twice the molar amount): lower toxicity than the combined drug group

From US11247994B2, “6-dithio-substituted-2′-deoxyguanosine compound, preparation method thereof and use thereof” (ZHEJIANG UNIVERSITY, priority 2018, dated 2022)
